# Read-outs that look alike come from different tables or passages of the source.
# Assays:
# Type in all cases: in vivo
# [1] = system: MES-induced seizures; assay: Maximal electroshock test (MES), mice
# [2] = system: Metrazol-induced clonic seizures; assay: Subcutaneous Metrazol test (scMet), mice
# [3] = system: minimal muscular or neurological impairment; assay: Toxicity (TOX), rotorod procedure, mice
# [4] = system: MES-induced seizures; assay: Maximal electroshock test (MES), rats; settings: Rat PO
# Protocol: The benzodiazepine derivative compounds selective for GABAa receptor subunits were tested for the ability to suppress seizures in several standard rat and mouse models of epilepsy. […] The standard models incorporated into anticonvulsant screening include the maximal electroshock test (MES), the subcutaneous Metrazol test (scMet), and evaluations of toxicity (TOX). The data for each condition is presented as a ratio of either the number of animals protected or toxic (loss of locomotor activity) over the number of animals tested at a given time point and dose.
# The MES is a model for generalized tonic-clonic seizures and provides an indication of a compound's ability to prevent seizure spread when all neuronal circuits in the brain are maximally active. These seizures are highly reproducible and are electrophysiologically consistent with human seizures. For all tests based on MES convulsions, 60 Hz of alternating current (50 mA in mice, 150 in rats) is delivered for by corneal electrodes which have been primed with an electrolyte solution containing an anesthetic agent (0.5% tetracaine HCL). For Test 1, mice are tested at various intervals following doses of 30, 100 and 300 mg/kg of test compound given by ip injection of a volume of 0.01 mL/g. In Test 2, rats are tested after a dose of 30 mg/kg (po) in a volume of 0.04 mL/g. Test 8 uses varying doses administered via i.p. injection, again in a volume of 0.04 ml/g. […] In Antiepileptic Drugs, Levy, R. H. M., Meldrum, B. S., Eds.; Raven Press: New York, pp 99-110, 1995b.).
# [5] = system: minimal motor deficit (ataxia, abnormal gait); assay: Toxicity (TOX), minimal motor deficit, rats; settings: for Tox, animals toxic/tested: 50 mg/kg; for TOX (Rotorod Test), animals toxic/tested: Rat IP, 100 mg/kg
# [6] = system: 6 Hz psychomotor seizure; assay: Minimal clonic seizure (6 Hz) test; settings: Mice IP; for ED50: Mus musculus, ip; for 6 Hz, animals protected/tested: 100 m/k
# In short: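 Mice dosed ip with test compound before 6 Hz corneal-type electrical stimulation lasting 3 s. Protection scored as absence of minimal clonic phase and stereotyped automatistic behaviour seen in untreated animals.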
# [7] = system: Metrazol-induced clonic seizures; assay: Subcutaneous Metrazol test (scMet), rats
# [8] = Toxicity (TOX), minimal motor deficit, rats; settings: in vivo; Rat IP
# [9] = Mice, 50 mg/kg PO (Mice IP), 0.5 hr
# [10] = Mice, 50 mg/kg PO (Mice IP), 4.0 hr
compound,measurement,setting,value
"C#Cc1ccc2c(c1)C(c1ccccc1)=N[C@H](C)c1nnc(C)n1-2 [SH-TR-CH3 (146), (4R)-8-Ethynyl-1,4-dimethyl-6-phenyl-4H-benzo[f][1,2,4]triazolo[4,3-a][1,4]diazepine]","MES, animals protected/tested","[1]; Mice IP, 30 mg/kg, 0.5 Hr",0/1
same,"MES, animals protected/tested","[1]; Mice IP, 30 mg/kg, 4.0 Hr",0/1
same,"MES, animals protected/tested","[1]; Mice IP, 100 mg/kg, 0.5 hr",0/3
same,"MES, animals protected/tested","[1]; Mice IP, 100 mg/kg, 4.0 hr",0/3
same,"MES, animals protected/tested","[1]; Mice IP, 300 mg/kg, 0.5 Hr",0/1
same,"MES, animals protected/tested","[1]; Mice IP, 300 mg/kg, 4.0 Hr",0/1
same,"scMet, animals protected/tested","[2]; Mice IP, 30 mg/kg, 0.5 Hr",0/1
same,"scMet, animals protected/tested","[2]; Mice IP, 30 mg/kg, 4.0 Hr",0/1
same,"scMet, animals protected/tested","[2]; Mice IP, 100 mg/kg, 0.5 hr",0/1
same,"scMet, animals protected/tested","[2]; Mice IP, 100 mg/kg, 4.0 hr",0/1
same,"scMet, animals protected/tested","[2]; Mice IP, 300 mg/kg, 0.5 Hr",1/1
same,"scMet, animals protected/tested","[2]; Mice IP, 300 mg/kg, 4.0 Hr",0/1
same,"TOX (Rotorod Test), animals toxic/tested","[3]; Mice IP, 30 mg/kg, 0.5 Hr",0/4
same,"TOX (Rotorod Test), animals toxic/tested","[3]; Mice IP, 30 mg/kg, 4.0 Hr",0/2
same,"TOX (Rotorod Test), animals toxic/tested","[3]; Mice IP, 100 mg/kg, 0.5 hr",1/8
same,"TOX (Rotorod Test), animals toxic/tested","[3]; Mice IP, 100 mg/kg, 4.0 hr",0/4
same,"TOX (Rotorod Test), animals toxic/tested","[3]; Mice IP, 300 mg/kg, 0.5 Hr",1/4
same,"TOX (Rotorod Test), animals toxic/tested","[3]; Mice IP, 300 mg/kg, 4.0 Hr",0/2
same,"MES, animals protected/tested","[4]; 50 mg/kg, 0.5 h",0/4
same,"MES, animals protected/tested","[4]; 50 mg/kg, 1.0 h",0/4
same,"MES, animals protected/tested","[4]; 50 mg/kg, 2.0 h",0/4
same,"MES, animals protected/tested","[4]; 50 mg/kg, 4.0 h",0/4
same,"MES, animals protected/tested","[4]; 50 mg/kg, […]",0/4
same,"Tox, animals toxic/tested","[5]; Rat PO, 0.5 h",0/4
same,"Tox, animals toxic/tested","[5]; Rat PO, 1.0 h",1/4
same,"Tox, animals toxic/tested","[5]; Rat PO, 2.0 h",1/4
same,"Tox, animals toxic/tested","[5]; Rat PO, 4.0 h",0/4
same,"Tox, animals toxic/tested","[5]; Rat PO, […]",0/4
same,"6 Hz Time to Peak Effect, protected/tested","[6]; 7 mg/kg, 32 mA, 0.25 Hr",4/4
same,"6 Hz Time to Peak Effect, protected/tested","[6]; 7 mg/kg, 32 mA, 0.5 Hr",4/4
same,"6 Hz Time to Peak Effect, protected/tested","[6]; 7 mg/kg, 32 mA, 1.0 Hr",2/4
same,"6 Hz Time to Peak Effect, protected/tested","[6]; 15 mg/kg, 32 mA, 0.25 Hr",4/4
same,"6 Hz Time to Peak Effect, protected/tested","[6]; 15 mg/kg, 32 mA, 0.5 Hr",4/4^14
same,"6 Hz Time to Peak Effect, protected/tested","[6]; 15 mg/kg, 32 mA, 1.0 Hr",4/4^14
same,"6 Hz Time to Peak Effect, protected/tested","[6]; 15 mg/kg, 32 mA, 2.0 Hr",2/4
same,"6 Hz Time to Peak Effect, protected/tested","[6]; 15 mg/kg, 32 mA, 4.0 Hr",1/4
same,"6 Hz Time to Peak Effect, protected/tested","[6]; 50 mg/kg, 32 mA, 0.25 Hr",4/4^14
same,"6 Hz Time to Peak Effect, protected/tested","[6]; 50 mg/kg, 32 mA, 0.5 Hr",4/4^14
same,"6 Hz Time to Peak Effect, protected/tested","[6]; 100 mg/kg, 32 mA, 0.25 Hr",4/4^14
same,"6 Hz Time to Peak Effect, protected/tested","[6]; 100 mg/kg, 32 mA, 0.5 Hr",4/4^14
same,"6 Hz Time to Peak Effect, protected/tested","[6]; 100 mg/kg, 32 mA, 1.0 Hr",4/4^14
same,"6 Hz Time to Peak Effect, protected/tested","[6]; 100 mg/kg, 32 mA, 2.0 Hr",4/4^14
same,"6 Hz Time to Peak Effect, protected/tested","[6]; 100 mg/kg, 32 mA, 4.0 Hr",4/4^14
same,"6 Hz ED50 Biological Response, protected/tested","[6]; 32 mA, 0.25 Hr, 1.75 mg/kg",4/8
same,"6 Hz ED50 Biological Response, protected/tested","[6]; 32 mA, 0.25 Hr, 7 mg/kg",8/8
same,"6 Hz ED50 Biological Response, protected/tested","[6]; 44 mA, 0.25 Hr, 5 mg/kg",5/8
same,"6 Hz ED50 Biological Response, protected/tested","[6]; 44 mA, 0.25 Hr, 10 mg/kg",8/8
same,ED50,"[6]; […], 32 mA, 0.25 Hr, read-out: ED50 (6 Hz)",2.08 mg/kg
same,ED50,"[6]; […], 44 mA, 0.25 Hr, read-out: ED50 (6 Hz)",4.55 mg/kg
"C#Cc1ccc2c(c1)C(c1ccccn1)=NCc1c(C(=O)OCC)ncn1-2 [Hz166 (106), 8-Acetylenyl-6-pyridin-2-yl-4H-benzo[f]imidazo[1,5-a][1,4]diazepine-3-carboxylic acid ethyl ester]","MES, animals protected/tested","[1]; Mice IP, 100 mg/kg, 0.5 hr",0/3
same,"MES, animals protected/tested","[1]; Mice IP, 100 mg/kg, 4.0 hr",0/3
same,"MES, animals protected/tested",[1]; [9],1/4
same,"MES, animals protected/tested",[1]; [10],0/4
same,ED50,"[1]; Mus musculus, Mice IP",> 300 mg/kg
same,mice protected against scMet induced seizures,"[2]; Mice IP, 100 mg/kg, 0.5 hr",60%
same,"scMet, animals protected/tested","[2]; Mice IP, 100 mg/kg, 0.5 hr",3/5
same,"scMet, animals protected/tested","[2]; Mice IP, 100 mg/kg, 4.0 hr",0/1
same,"scMet, animals protected/tested",[2]; [9],4/4
same,"scMet, animals protected/tested",[2]; [10],0/4
same,ED50,"[2]; Mus musculus, Mice IP",16.3 mg/kg
same,"TOX (Rotorod Test), animals toxic/tested","[3]; Mice IP, 100 mg/kg, 0.5 hr",0/8
same,"TOX (Rotorod Test), animals toxic/tested","[3]; Mice IP, 100 mg/kg, 4.0 hr",0/4
same,TD50 TOX,"[3]; Mice IP, rotorod",> 500 mg/kg
same,"TOX (Rotorod Test), animals toxic/tested",[3]; [9],0/4
same,"TOX (Rotorod Test), animals toxic/tested",[3]; [10],0/4
same,ED50,[4],> 250 mg/kg
same,"MES, animals protected/tested","[4]; 30 mg/kg, 0.5 h",1/4
same,"MES, animals protected/tested","[4]; 30 mg/kg, 1.0 h",0/4
same,"MES, animals protected/tested","[4]; 30 mg/kg, 2.0 h",0/4
same,"MES, animals protected/tested","[4]; 30 mg/kg, 4.0 h",0/4
same,"MES, animals protected/tested","[4]; 30 mg/kg, […]",0/4
same,ED50,[7]; Rat IP,35.5 mg/kg
same,"scMet, animals protected/tested","[7]; Rat IP, 100 mg/kg, 0.5 hr",7/8
same,"scMet, animals protected/tested","[7]; Rat IP, 100 mg/kg, 4.0 hr",5/8
same,ED50,[7]; Rat PO,98.5 mg/kg
same,"scMet, animals protected/tested","[7]; Rat PO, 50 mg/kg, 0.5 h",4/4
same,"scMet, animals protected/tested","[7]; Rat PO, 50 mg/kg, 1.0 h",2/4
same,"scMet, animals protected/tested","[7]; Rat PO, 50 mg/kg, 2.0 h",1/4
same,"scMet, animals protected/tested","[7]; Rat PO, 50 mg/kg, 4.0 h",0/4
same,"scMet, animals protected/tested","[7]; Rat PO, 50 mg/kg, […]",0/4
same,TD50,[8],95.3 mg/kg
same,"TOX (Rotorod Test), animals toxic/tested",[5]; 0.5 hr,0/8
same,"TOX (Rotorod Test), animals toxic/tested",[5]; 4.0 hr,0/8
same,"Tox, animals toxic/tested","[5]; Rat PO, 0.5 h",0/4
same,"Tox, animals toxic/tested","[5]; Rat PO, 1.0 h",0/4
same,"Tox, animals toxic/tested","[5]; Rat PO, 2.0 h",0/4
same,"Tox, animals toxic/tested","[5]; Rat PO, 4.0 h",0/4
same,"Tox, animals toxic/tested","[5]; Rat PO, […]",0/4
same,TD50 TOX,"[5]; Rat PO, abnormal gait",>500 mg/kg
same,motor impairment / sedative or locomotor effects,"[5]; rats, oral administration, up to 500 mg/kg",No motor impairment
same,"6 Hz, animals protected/tested","[6]; 44 mA, 0.5 hr",1/4
same,"6 Hz, animals protected/tested","[6]; 44 mA, 1.0 hr",1/4
same,"6 Hz, animals protected/tested","[6]; 44 mA, 2.0 hr",0/4
same,"6 Hz, animals protected/tested","[6]; 44 mA, 4 hr",0/4
same,"6 Hz, animals protected/tested","[6]; 44 mA, […]",4/4
same,ED50,"[6]; 32 mA, read-out: ED50 32 mA (6 Hz test)",25.8 mg/kg
same,ED50,"[6]; 44 mA, read-out: ED50 44 mA (6 Hz test)",115 mg/kg
